Results on two substances are retold here after publication PMC8466300, “Investigating the Central Nervous System Disposition of Actinomycin D: Implementation and Evaluation of Cerebral Microdialysis and Brain Tissue Measurements Supported by UPLC-MS/MS Quantification” (Pharmaceutics, 2021).

A short description of the data set: Reverse-phase UPLC retention relative to actinomycin D. The class given is physicochemical. As to conditions: Peptide BEH C18 300 Å, gradient 40–100% ACN + 0.1% FA, 60 °C. On the procedure:
The injected sample volume was 20 µL.
For chromatography optimization we tested reverse phase columns (C18 and C4) due to actinomycin D´s high lipophilicity. We used reverse phase material with a large pore width of 300 Å because large pore widths usually foster optimal mass transfer kinetics for macromolecules. Chromatographic peak shape and separation performed better on the C18 column. In accordance with the high lipophilicity of actinomycin D, a gradient from 40–100% eluent B was found optimal and yielded peaks with a width at baseline of 6 s (Figure 2).

On to 7-amino actinomycin D, for which the “shift in reverse-phase retention relative to actinomycin D” value is “large hydrophilic shift in retention time”.

As to Actinomycin C, the “shift in reverse-phase retention relative to actinomycin D” value is reported as “only a minimal lipophilic shift”.
